From patent publication US20190330224A1, “ACC INHIBITORS AND USES THEREOF” (Gilead Apollo, LLC, priority 2015, published 2019)
Converted amounts (≈) assume the structure as drawn.

Legend:
[1] = target: Human ACC2 (Homo sapiens, UniProt O00763); test: In vitro ACC2 inhibition assay (ADP-Glo), human ACC2; assay type: biochemical; details: 5 nM ACC2, 20 μM ATP, 20 μM acetyl-CoA
[2] = test system: C. albicans ATCC 90028; test: Anti-Fungal Activity Assay (broth microtiter MIC), C. albicans; assay type: cell-based, Candida albicans; details: 3 replicates, MIC recorded at 48 h; for MIC: Candida albicans, ATCC90028, 48 h, read-out: MIC C. albicans ATCC 90028
Protocol: (§1) Compounds of the present invention were evaluated in an Anti-Fungal Activity Assay. An exemplary procedure for the assay, which measures the susceptibility of various Candida species to anti-fungal compounds, follows. Compounds to be tested (including fluconazole and amphotericin B) were dissolved in DMSO to obtain a solution having a concentration of 1 mg/mL. […] All species were grown from frozen stock by directly plating on to freshly prepared Sabouraud Dextrose agar (BD, Difco) and incubated overnight in ambient air at 35° C. for 24 h. A direct suspension was prepared in RPMI 1640+MOPS (Lonza, Biowhittaker) by taking individual colonies from the overnight cultures using sterile swabs soaked in sterile saline. The concentration of the suspension was determined using pre-determined standard curves. […] Broth microtiter MIC challenge plates were prepared following CLSI guidelines (M27-A3, Vol. 28 No. 14). The original CLSI guidelines focused on reading Candida MICs after 48 h of incubation. As reading after only 24 h offers a clear advantage of patient care, QC limits are being established for all drugs at 24 h. That being said there are no known interpretive breakpoints for amphotericin B at 24 h and the current fluconazole interpretive breakpoints are based on a 48 h reading. The MIC breakpoints for the test compounds were recorded at 48 h, and for the soraphen the 24 h time-point was added. All MIC determinations were achieved by visually comparing the growth found in the antibiotic challenged wells to that of the growth control.

[3] = test system: C. krusei ATCC 6258; test: Anti-Fungal Activity Assay (broth microtiter MIC), C. krusei; assay type: cell-based, Candida krusei; details: 3 replicates, MIC recorded at 48 h; for MIC: Pichia kudriavzevii, ATCC6258, 48 h, read-out: MIC C. krusei ATCC 6258
Protocol: as §1

[4] = test system: C. parapsilosis ATCC 22019; test: Anti-Fungal Activity Assay (broth microtiter MIC), C. parapsilosis; assay type: cell-based, Candida parapsilosis; details: Lodderomyces parapsilosis, ATCC22019, 48 h, 3 replicates; MIC recorded at 48 h; read-out: MIC C. parapsilosis ATCC 22019
Protocol: as §1

Chain of Human ACC2 (O00763 whole entry): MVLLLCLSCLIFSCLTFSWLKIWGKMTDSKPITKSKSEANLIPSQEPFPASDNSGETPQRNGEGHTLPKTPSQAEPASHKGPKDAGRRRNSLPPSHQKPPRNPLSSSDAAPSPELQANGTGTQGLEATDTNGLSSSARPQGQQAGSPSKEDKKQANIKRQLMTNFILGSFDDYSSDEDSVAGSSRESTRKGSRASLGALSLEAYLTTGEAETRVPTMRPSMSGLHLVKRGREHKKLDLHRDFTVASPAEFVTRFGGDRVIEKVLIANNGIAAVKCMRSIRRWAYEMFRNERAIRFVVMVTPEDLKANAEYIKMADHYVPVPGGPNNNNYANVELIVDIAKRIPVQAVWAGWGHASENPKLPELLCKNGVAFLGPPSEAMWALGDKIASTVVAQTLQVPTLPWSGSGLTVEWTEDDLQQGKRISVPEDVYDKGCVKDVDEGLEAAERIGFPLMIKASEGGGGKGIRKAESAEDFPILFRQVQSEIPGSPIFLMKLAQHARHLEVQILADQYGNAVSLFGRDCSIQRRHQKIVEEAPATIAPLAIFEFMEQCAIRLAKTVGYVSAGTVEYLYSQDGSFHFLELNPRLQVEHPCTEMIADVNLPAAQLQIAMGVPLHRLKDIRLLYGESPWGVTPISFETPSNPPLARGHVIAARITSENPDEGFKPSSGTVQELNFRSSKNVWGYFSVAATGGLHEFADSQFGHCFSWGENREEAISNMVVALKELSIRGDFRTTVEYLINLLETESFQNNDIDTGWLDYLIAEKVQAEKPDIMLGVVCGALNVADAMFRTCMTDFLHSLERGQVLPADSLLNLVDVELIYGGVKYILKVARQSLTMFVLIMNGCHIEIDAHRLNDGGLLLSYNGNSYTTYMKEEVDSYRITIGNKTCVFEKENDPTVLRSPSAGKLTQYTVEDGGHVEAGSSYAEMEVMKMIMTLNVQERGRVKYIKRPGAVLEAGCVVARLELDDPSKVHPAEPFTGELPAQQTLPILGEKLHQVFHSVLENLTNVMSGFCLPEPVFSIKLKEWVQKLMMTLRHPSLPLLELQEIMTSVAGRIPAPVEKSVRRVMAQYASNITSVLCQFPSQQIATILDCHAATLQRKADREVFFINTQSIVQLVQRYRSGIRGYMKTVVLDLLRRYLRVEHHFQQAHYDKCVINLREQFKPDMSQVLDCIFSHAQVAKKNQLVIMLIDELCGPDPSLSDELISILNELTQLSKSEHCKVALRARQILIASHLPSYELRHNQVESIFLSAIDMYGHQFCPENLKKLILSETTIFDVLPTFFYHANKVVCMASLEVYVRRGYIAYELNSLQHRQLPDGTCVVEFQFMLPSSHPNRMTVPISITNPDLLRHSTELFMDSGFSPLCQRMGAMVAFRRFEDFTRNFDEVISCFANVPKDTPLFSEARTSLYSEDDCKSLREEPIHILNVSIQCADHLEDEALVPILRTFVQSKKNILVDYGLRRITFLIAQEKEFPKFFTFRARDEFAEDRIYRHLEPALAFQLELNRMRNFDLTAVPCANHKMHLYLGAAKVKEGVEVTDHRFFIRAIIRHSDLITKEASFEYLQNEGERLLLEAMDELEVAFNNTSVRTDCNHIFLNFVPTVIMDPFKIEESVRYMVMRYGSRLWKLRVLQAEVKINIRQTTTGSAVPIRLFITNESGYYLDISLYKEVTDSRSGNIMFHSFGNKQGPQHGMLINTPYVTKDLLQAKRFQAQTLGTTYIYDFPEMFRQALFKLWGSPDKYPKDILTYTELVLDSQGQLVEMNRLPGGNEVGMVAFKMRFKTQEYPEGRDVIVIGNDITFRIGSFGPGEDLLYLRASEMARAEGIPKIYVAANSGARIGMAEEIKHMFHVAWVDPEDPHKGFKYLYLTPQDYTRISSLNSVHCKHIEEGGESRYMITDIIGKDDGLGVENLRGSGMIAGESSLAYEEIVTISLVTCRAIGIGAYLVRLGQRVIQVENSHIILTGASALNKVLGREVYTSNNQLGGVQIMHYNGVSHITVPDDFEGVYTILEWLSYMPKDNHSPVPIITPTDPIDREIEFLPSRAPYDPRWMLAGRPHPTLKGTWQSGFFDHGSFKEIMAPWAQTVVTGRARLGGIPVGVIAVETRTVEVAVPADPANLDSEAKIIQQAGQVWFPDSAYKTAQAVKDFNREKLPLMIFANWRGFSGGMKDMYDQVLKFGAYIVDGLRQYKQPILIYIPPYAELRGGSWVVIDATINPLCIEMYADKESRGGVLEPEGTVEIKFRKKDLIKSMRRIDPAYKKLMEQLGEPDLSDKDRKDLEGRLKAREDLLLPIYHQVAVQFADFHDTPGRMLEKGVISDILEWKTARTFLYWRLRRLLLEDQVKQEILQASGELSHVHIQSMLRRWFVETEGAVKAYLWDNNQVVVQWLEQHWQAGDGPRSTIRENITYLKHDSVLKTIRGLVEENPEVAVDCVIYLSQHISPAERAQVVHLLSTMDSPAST

Row | SMILES | IC50 [1] | MIC C. albicans ATCC 90028 [2] | MIC C. krusei ATCC 6258 [3] | MIC [4] | MIC [2] | MIC [3]
1 | COc1ccc(F)cc1[C@H](Cn1c(=O)n(C2CCN(C(C)C)C2=O)c(=O)c2c(C)c(-n3nccn3)sc21)OC1CCOCC1 (stereo in doubt) [Compound I-138, 1-((R)-2-(5-fluoro-2-methoxyphenyl)-2-((tetrahydro-2H-pyran-4-yl)oxy)ethyl)-3-((S)-1-isopropyl-2-oxopyrrolidin-3-yl)-5-methyl-6-(2H-1,2,3-triazol-2-yl)thieno[2,3-d]pyrimidine-2,4(1H,3H)-dione] | 2 to 10 nM | A (provided an MIC of 0.25-1.0 μg/mL) | A (provided an MIC of 0.25-1.0 μg/mL) | 2.1 to 4 µg/mL (≈ 3.35 to 6.38 µM) |  | 
2 | COc1ccc(F)cc1[C@H](Cn1c(=O)n(C2CCN(C)C2=O)c(=O)c2c(C)c(-n3nccn3)sc21)OCCO (stereo partly drawn) [Compound I-6, 1-((R)-2-(5-fluoro-2-methoxyphenyl)-2-(2-hydroxy-ethoxy)ethyl)-5-methyl-3-(-methyl-2-oxopyrrolidin-3-yl)-6-(2H-1,2,3-triazol-2-yl)thieno[2,3-d]pyrimidine-2,4(1H,3H)-dione] | 10 to 100 nM |  |  | 2.1 to 4 µg/mL (≈ 3.76 to 7.16 µM) | 2.1 to 4 µg/mL (≈ 3.76 to 7.16 µM) | 2.1 to 4 µg/mL (≈ 3.76 to 7.16 µM)
3 | CCN1CCC(n2c(=O)c3c(C)c(-n4nccn4)sc3n(C[C@H](OCCO)c3cc(F)ccc3OC)c2=O)C1=O (stereo partly drawn) [Compound I-7, 3-(1-ethyl-2-oxopyrrolidin-3-yl)-1-((R)-2-(5-fluoro-2-methoxyphenyl)-2-(2-hydroxyethoxy)ethyl)-5-methyl-6-(2H-1,2,3-triazol-2-yl)thieno[2,3-d]pyrimidine-2,4(1H,3H)-dione] | 10 to 100 nM |  |  | 2.1 to 4 µg/mL (≈ 3.67 to 6.99 µM) | 2.1 to 4 µg/mL (≈ 3.67 to 6.99 µM) | 1.1 to 2 µg/mL (≈ 1.92 to 3.49 µM)
4 | COc1ccc(F)cc1[C@H](Cn1c(=O)n(C2CCNC2=O)c(=O)c2c(C)c(-n3nccn3)sc21)OC1CCOCC1 (stereo partly drawn) [Compound I-9, 1-((R)-2-(5-fluoro-2-methoxyphenyl)-2-((tetrahydro-2H-pyran-4-yl)oxy)ethyl)-5-methyl-3-(2-oxopyrrolidin-3-yl)-6-(22H-1,2,3-triazol-2-yl)thieno[2,3-d]pyrimidine-2,4(1H,3H)-dione] | 2 to 10 nM |  |  |  |  | 
5 | COc1ccc(F)cc1[C@H](Cn1c(=O)n(C2CCCNC2=O)c(=O)c2c(C)c(-n3nccn3)sc21)OCCO (stereo partly drawn) [Compound I-17, 1-((R)-2-(5-fluoro-2-methoxyphenyl)-2-(2-hydroxy-ethoxy)ethyl)-5-methyl-3-(2-oxopiperidin-3-yl)-6-(2H-1,2,3-triazol-2-yl)thieno[2,3-d]pyrimidine-2,4(1H,3H)-dione] | 2 to 10 nM |  |  | 2.1 to 4 µg/mL (≈ 3.76 to 7.16 µM) | 2.1 to 4 µg/mL (≈ 3.76 to 7.16 µM) | 2.1 to 4 µg/mL (≈ 3.76 to 7.16 µM)
6 | CCN1CCCC(n2c(=O)c3c(C)c(-n4nccn4)sc3n(C[C@H](OCCO)c3cc(F)ccc3OC)c2=O)C1=O (stereo partly drawn) [Compound I-19, 3-(1-ethyl-2-oxopiperidin-3-yl)-1-((R)-2-(5-fluoro-2-methoxyphenyl)-2-(2-hydroxyethoxy)ethyl)-5-methyl-6-(2H-1,2,3-triazol-2-yl)thieno[2,3-d]pyrimidine-2,4(1H,3H)-dione] | 10 to 100 nM |  |  | 2.1 to 4 µg/mL (≈ 3.58 to 6.82 µM) | 2.1 to 4 µg/mL (≈ 3.58 to 6.82 µM) | 2.1 to 4 µg/mL (≈ 3.58 to 6.82 µM)
7 | COc1ccc(F)cc1[C@H](Cn1c(=O)n(C2CCCNC2=O)c(=O)c2c(C)c(-n3nccn3)sc21)OC1CCOCC1 (stereo partly drawn) [Compound I-21, 1-((R)-2-(5-fluoro-2-methoxyphenyl)-2-((tetrahydro-2H-pyran-4-yl)oxy)ethyl)-5-methyl-3-(2-oxopiperidin-3-yl)-6-(2H-1,2,3-triazol-2-yl)thieno[2,3-d]pyrimidine-2,4(1H,3H)-dione] | 2 to 10 nM |  |  | 1.1 to 2 µg/mL (≈ 1.84 to 3.34 µM) | 0.25 to 1 µg/mL (≈ 0.418 to 1.67 µM) | 0.25 to 1 µg/mL (≈ 0.418 to 1.67 µM)
8 | COc1ccc(F)cc1[C@H](Cn1c(=O)n([C@H]2CCNC2=O)c(=O)c2c(C)c(-n3nccn3)sc21)OC1CCOCC1 [Compound I-33, 1-((R)-2-(5-fluoro-2-methoxyphenyl)-2-((tetrahydro-2H-pyran-4-yl)oxy)ethyl)-5-methyl-3-((S)-2-oxopyrrolidin-3-yl)-6-(2H-1,2,3-triazol-2-yl)thieno[2,3-d]pyrimidine-2,4(1H,3H)-dione] | 2 to 10 nM |  |  | 2.1 to 4 µg/mL (≈ 3.59 to 6.84 µM) | 2.1 to 4 µg/mL (≈ 3.59 to 6.84 µM) | 1.1 to 2 µg/mL (≈ 1.88 to 3.42 µM)
9 | COc1ccc(F)cc1[C@H](Cn1c(=O)n([C@H]2CCCN(C(C)C)C2=O)c(=O)c2c(C)c(-n3nccn3)sc21)OC1CCOCC1 [Compound I-76, 1-((R)-2-(5-fluoro-2-methoxyphenyl)-2-((tetrahydro-2H-pyran-4-yl)oxy)ethyl)-3-((S)-1-isopropyl-2-oxopiperidin-3-yl)-5-methyl-6-(2H-1,2,3-triazol-2-yl)thieno[2,3-d]pyrimidine-2,4(1H,3H)-dione] | 10 to 100 nM |  |  |  |  | 
10 | COc1ccc(F)cc1[C@H](Cn1c(=O)n([C@@H]2CCCN(C(C)C)C2=O)c(=O)c2c(C)c(-n3nccn3)sc21)OC1CCOCC1 [Compound I-77, 1-((R)-2-(5-fluoro-2-methoxyphenyl)-2-((tetrahydro-2H-pyran-4-yl)oxy)ethyl)-3-((R)-1-isopropyl-2-oxopiperidin-3-yl)-5-methyl-6-(2H-1,2,3-triazol-2-yl)thieno[2,3-d]pyrimidine-2,4(1H,3H)-dione] | 2 to 10 nM |  |  |  |  | 
11 | COc1ccc(F)cc1[C@H](Cn1c(=O)n([C@]2(C)CCN(C)C2=O)c(=O)c2c(C)c(-n3nccn3)sc21)OCCO [Compound I-147, 3-((R)-1,3-dimethyl-2-oxopyrrolidin-3-yl)-1-((R)-2-(5-fluoro-2-methoxyphenyl)-2-(2-hydroxyethoxy)ethyl)-5-methyl-6-(2H-1,2,3-triazol-2-yl)thieno[2,3-d]pyrimidine-2,4(1H,3H)-dione] | > 1000 nM |  |  |  |  | 

Next, values leading:

Row | IC50 [1] | MIC C. albicans ATCC 90028 [2] | MIC C. krusei ATCC 6258 [3] | MIC [4] | MIC [2] | MIC [3] | SMILES
12 | 10 to 100 nM |  |  | 2.1 to 4 µg/mL (≈ 3.58 to 6.82 µM) | 2.1 to 4 µg/mL (≈ 3.58 to 6.82 µM) | 2.1 to 4 µg/mL (≈ 3.58 to 6.82 µM) | CCN1CCC(n2c(=O)c3c(C)c(-n4nccn4)sc3n(C[C@H](OCCOC)c3cc(F)ccc3OC)c2=O)C1=O (stereo partly drawn) [Compound I-3, 3-(1-ethyl-2-oxopyrrolidin-3-yl)-1-((R)-2-(5-fluoro-2-methoxyphenyl)-2-(2-methoxyethoxy)ethyl)-5-methyl-6-(2H-1,2,3-triazol-2-yl)thieno[2,3-d]pyrimidine-2,4(1H,3H)-dione]
13 | 2 to 10 nM |  |  |  |  |  | COc1ccc(F)cc1[C@H](Cn1c(=O)n(C2CCN(C(C)C)C2=O)c(=O)c2c(C)c(-n3nccn3)sc21)OCCO (stereo partly drawn) [Compound I-8, 1-((R)-2-(5-fluoro-2-methoxyphenyl)-2-(2-hydroxyethoxy)ethyl)-3-(1-isopropyl-2-oxopyrrolidin-3-yl)-5-methyl-6-(2H-1,2,3-triazol-2-yl)thieno[2,3-d]pyrimidine-2,4(1H,3H)-dione]
14 | 10 to 100 nM |  |  | 2.1 to 4 µg/mL (≈ 3.5 to 6.66 µM) | 2.1 to 4 µg/mL (≈ 3.5 to 6.66 µM) | 2.1 to 4 µg/mL (≈ 3.5 to 6.66 µM) | COc1ccc(F)cc1[C@H](Cn1c(=O)n(C2CCCN(C(C)C)C2=O)c(=O)c2c(C)c(-n3nccn3)sc21)OCCO (stereo partly drawn) [Compound I-20, 1-((R)-2-(5-fluoro-2-methoxyphenyl)-2-(2-hydroxy-ethoxy)ethyl)-3-(1-isopropyl-2-oxopiperidin-3-yl)-5-methyl-6-(2H-1,2,3-triazol-2-yl)thieno[2,3-d]pyrimidine-2,4(1H,3H)-dione]
15 | 10 to 100 nM |  |  | 0.25 to 1 µg/mL (≈ 0.39 to 1.56 µM) | 0.25 to 1 µg/mL (≈ 0.39 to 1.56 µM) | 0.25 to 1 µg/mL (≈ 0.39 to 1.56 µM) | COc1ccc(F)cc1[C@H](Cn1c(=O)n(C2CCCN(C(C)C)C2=O)c(=O)c2c(C)c(-n3nccn3)sc21)OC1CCOCC1 (stereo partly drawn) [Compound I-24]
16 | > 1000 nM |  |  |  |  |  | COc1ccc(F)cc1[C@H](Cn1c(=O)n([C@]2(C)CCNC2=O)c(=O)c2c(C)c(-n3nccn3)sc21)OCCO [Compound I-144, 1-((R)-2-(5-fluoro-2-methoxyphenyl)-2-(2-hydroxyethoxy)ethyl)-5-methyl-3-((R)-3-methyl-2-oxopyrrolidin-3-yl)-6-(2H-1,2,3-triazol-2-yl)thieno[2,3-d]pyrimidine-2,4(1H,3H)-dione]
17 | > 1000 nM |  |  |  |  |  | COc1ccc(F)cc1[C@H](Cn1c(=O)n([C@@]2(C)CCNC2=O)c(=O)c2c(C)c(-n3nccn3)sc21)OCCO [Compound I-145, 1-((R)-2-(5-fluoro-2-methoxyphenyl)-2-(2-hydroxy-ethoxy)ethyl)-5-methyl-3-((S)-3-methyl-2-oxopyrrolidin-3-yl)-6-(2H-1,2,3-triazol-2-yl)thieno[2,3-d]pyrimidine-2,4(1H,3H)-dione]
18 | > 1000 nM |  |  |  |  |  | COc1ccc(F)cc1[C@H](Cn1c(=O)n([C@@]2(C)CCN(C)C2=O)c(=O)c2c(C)c(-n3nccn3)sc21)OCCO [Compound I-149, 3-((S)-1,3-dimethyl-2-oxopyrrolidin-3-yl)-1-((R)-2-(5-fluoro-2-methoxyphenyl)-2-(2-hydroxyethoxy)ethyl)-5-methyl-6-(2H-1,2,3-triazol-2-yl)thieno[2,3-d]pyrimidine-2,4(1H,3H)-dione]
